Here are results for 20 compounds from patent US9896441B2 (Lycera Corporation, priority 2014, dated 2018).

In assay [1] the target is T1, RORγ-LBD (Homo sapiens, UniProt P51449).
T1 construct: made in house; host or cells: SF9 cells (baculovirus); used as diluted lysate
T1 sequence (P51449 269-508 limits assumed): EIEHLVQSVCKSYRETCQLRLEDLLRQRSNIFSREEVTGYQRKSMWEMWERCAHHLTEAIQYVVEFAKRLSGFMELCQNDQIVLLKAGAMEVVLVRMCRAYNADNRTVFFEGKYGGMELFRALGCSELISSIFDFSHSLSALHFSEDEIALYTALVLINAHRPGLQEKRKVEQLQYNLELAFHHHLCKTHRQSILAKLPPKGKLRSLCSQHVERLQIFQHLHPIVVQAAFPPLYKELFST
Nature of the assay: RORγ-Ligand Binding Domain (LBD) TR-FRET Assay. In kind it is biochemical. The conditions noted are these: RORγ-LBD TR-FRET. The method, boiled down: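 Compounds, diluted in DMSO and then in assay buffer (1% DMSO final), were combined with His-tagged RORγ-LBD lysate at roughly 3 nM final and a 200 nM biotinylated SRC1 LXXLL peptide. Ursolic acid was included at 2 μM final. Coactivator recruitment was detected by TR-FRET.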
A general note: In TR-FRET formats the signal depends on donor and acceptor labels being close together.

Assay [2] has as its target T2, Gal4-RORγ-LBD (Homo sapiens, UniProt P51449).
T2 construct: expressed in transfected cells
T2 sequence (P51449 269-508 limits assumed): T1 sequence (P51449 269-508 limits assumed)
Description: Gal4-RORγ Luciferase Reporter Assay in HEK-293T Cells. The assay is classed as cell-based. As to conditions: HEK-293 cells, luciferase reporter, with ursolic acid. The method, boiled down: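 Max Response was taken as the upper plateau of a 4-parameter logistic fit of luciferase signal, normalized to 100 for wells without ursolic acid or compound. Transiently Gal4-RORγ-LBD/Gal4-luc transfected HEK-293 cells carrying […] ursolic acid were incubated with test compounds (0.2% DMSO) overnight at 37 °C and read with One-Glo.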
For orientation: Reporter assays use an easily measured gene product as a stand-in for the process of interest.

One may read the EC50 as the concentration at which the effect is half-maximal.

In the case of `CC/C(=C\c1ccc2c(c1)N(S(=O)(=O)c1cccc(C(F)(F)F)c1)C[C@H](CCC(=O)O)O2)c1ccccc1` [Example 36C, (S,E)-3-(6-(2-phenylbut-1-en-1-yl)-4-((3-(trifluoromethyl)-phenyl)sulfonyl)-3,4-dihydro-2H-benzo[b][1,4]oxazin-2-yl)propanoic acid], the concentration giving a half-maximal response (EC50) was less than 500 nM in assay [1] and 500 to 5000 nM in assay [2].
On to `O=C(O)CC[C@H]1CN(S(=O)(=O)c2cccc(C(F)(F)F)c2)c2cc(/C=C3\CCCc4ccccc43)ccc2O1` [Example 37, (S,E)-3-(6-((3,4-Dihydronaphthalen-1(2H)-ylidene)methyl)-4-((3-(trifluoromethyl)phenyl)sulfonyl)-3,4-dihydro-2H-benzo[b][1,4]oxazin-2-yl)propanoic acid], for which the EC50 in assay [1] and in assay [2] was less than 500 nM throughout.
Regarding `COC(=O)CC[C@H]1CN(S(=O)(=O)c2cccc(C(F)(F)F)c2)c2cc(/C=C3\CCOc4ccccc43)ccc2O1` [Example 38A, methyl (S,E)-3-(6-(chroman-4-ylidenemethyl)-4-((3-(trifluoromethyl)phenyl)sulfonyl)-3,4-dihydro-2H-benzo[b][1,4]oxazin-2-yl)propanoate], the figures for the EC50 in assay [1] and in assay [2] were less than 500 nM and 500 to 5000 nM, respectively.
Consider `O=C(O)CC[C@H]1CN(S(=O)(=O)c2cccc(C(F)(F)F)c2)c2cc(/C=C3\CCOc4ccccc43)ccc2O1` [Example 38B, (S,E)-3-(6-(chroman-4-ylidenemethyl)-4-((3-(trifluoromethyl)-phenyl)sulfonyl)-3,4-dihydro-2H-benzo[b][1,4]oxazin-2-yl)propanoic acid], for which the values for the EC50 in assay [1] and in assay [2] were less than 500 nM and 500 to 5000 nM, respectively.
As to `COC(=O)CC[C@H]1CN(S(=O)(=O)c2cccc(C(F)(F)F)c2)c2cc(/C=C(\C)c3c(F)cccc3Cl)c(F)cc2O1` [Example 41, (S,E)-Methyl 3-(6-(2-(2-chloro-6-fluorophenyl)prop-1-en-1-yl)-7-fluoro-4-((3-(trifluoromethyl)phenyl)sulfonyl)-3,4-dihydro-2H-benzo[b][1,4]oxazin-2-yl)propanoate], the EC50 in assay [1] and in assay [2] was less than 500 nM each time.
`C/C(=C\c1cc2c(cc1F)O[C@@H](CCC(=O)O)CN2S(=O)(=O)c1cccc(C(F)(F)F)c1)c1c(F)cccc1Cl` [Example 42, (S,E)-3-(6-(2-(2-Chloro-6-fluorophenyl)prop-1-en-1-yl)-7-fluoro-4-((3-(trifluoromethyl)phenyl)sulfonyl)-3,4-dihydro-2H-benzo[b][1,4]oxazin-2-yl)propanoic acid]: the EC50 in assay [1] was less than 500 nM; in assay [2] it was 500 to 5000 nM.
In the same order, the values of `COC(=O)CC[C@H]1CN(S(=O)(=O)c2cccc(OC(F)F)c2)c2cc(/C=C(\C)c3c(F)cccc3Cl)c(F)cc2O1` [Example 43, (S,E)-Methyl 3-(6-(2-(2-chloro-6-fluorophenyl)prop-1-en-1-yl)-4-((3-(difluoromethoxy)phenyl)sulfonyl)-7-fluoro-3,4-dihydro-2H-benzo[b][1,4]oxazin-2-yl)propanoate] are less than 500 nM and less than 500 nM.
For `C/C(=C\c1cc2c(cc1F)O[C@@H](CCC(=O)O)CN2S(=O)(=O)c1cccc(OC(F)F)c1)c1c(F)cccc1Cl` [Example 44, (S,E)-3-(6-(2-(2-Chloro-6-fluorophenyl)prop-1-en-1-yl)-4-((3-(difluoromethoxy)phenyl)sulfonyl)-7-fluoro-3,4-dihydro-2H-benzo[b][1,4]oxazin-2-yl)propanoic acid], the results for the EC50 in assay [1] and in assay [2] were less than 500 nM and 500 to 5000 nM, respectively.
Regarding `COC(=O)CC[C@H]1CN(S(=O)(=O)c2cccc(C(F)(F)F)c2)c2cc(/C=C(\C)c3c(F)cccc3Cl)c(Cl)cc2O1` [Example 45, (S,E)-Methyl 3-(7-chloro-6-(2-(2-chloro-6-fluorophenyl)prop-1-en-1-yl)-4-((3-(trifluoromethyl)phenyl)sulfonyl)-3,4-dihydro-2H-benzo[b][1,4]oxazin-2-yl)propanoate], the EC50 in assay [1] was less than 500 nM; in assay [2] it was 500 to 5000 nM.
In the same order, the values of `C/C(=C\c1cc2c(cc1Cl)O[C@@H](CCC(=O)O)CN2S(=O)(=O)c1cccc(C(F)(F)F)c1)c1c(F)cccc1Cl` [Example 46, (S,E)-3-(7-Chloro-6-(2-(2-chloro-6-fluorophenyl)prop-1-en-1-yl)-4-((3-(trifluoromethyl)phenyl)sulfonyl)-3,4-dihydro-2H-benzo[b][1,4]oxazin-2-yl)propanoic acid] are less than 500 nM and less than 500 nM.
For `COC(=O)CC[C@H]1CN(S(=O)(=O)c2cccc(OC(F)F)c2)c2cc(/C=C(\C)c3c(F)cccc3Cl)c(Cl)cc2O1` [Example 47, (S,E)-Methyl 3-(6-(2-(2-chloro-6-fluorophenyl)prop-1-en-1-yl)-4-((3-(difluoromethoxy)phenyl)sulfonyl)-7-chloro-3,4-dihydro-2H-benzo[b][1,4]oxazin-2-yl)propanoate], the EC50 is less than 500 nM in assay [1] and 5000 to 10000 nM in assay [2].
`C/C(=C\c1cc2c(cc1Cl)O[C@@H](CCC(=O)O)CN2S(=O)(=O)c1cccc(OC(F)F)c1)c1c(F)cccc1Cl` [Example 48, (S,E)-3-(6-(2-(2-Chloro-6-fluorophenyl)prop-1-en-1-yl)-4-((3-(difluoromethoxy)phenyl)sulfonyl)-7-chloro-3,4-dihydro-2H-benzo[b][1,4]oxazin-2-yl)propanoate]: the EC50 in assay [1] is 500 to 5000 nM; in assay [2] it was less than 500 nM.
Regarding `COC(=O)CC[C@H]1CN(S(=O)(=O)c2cccc(C(F)(F)F)c2)c2cc(/C=C(\C)c3c(F)cccc3Cl)cc(F)c2O1` [Example 49, (S,E)-Methyl 3-(6-(2-(2-chloro-6-fluorophenyl)prop-1-en-1-yl)-8-fluoro-4-((3-(trifluoromethyl)phenyl)sulfonyl)-3,4-dihydro-2H-benzo[b][1,4]oxazin-2-yl)propanoate], the results for the EC50 in assay [1] and in assay [2] were less than 500 nM and 500 to 5000 nM, respectively.
For the compound `C/C(=C\c1cc(F)c2c(c1)N(S(=O)(=O)c1cccc(C(F)(F)F)c1)C[C@H](CCC(=O)O)O2)c1c(F)cccc1Cl` [Example 50, (S,E)-3-(6-(2-(2-Chloro-6-fluorophenyl)prop-1-en-1-yl)-8-fluoro-4-((3-(trifluoromethyl)phenyl)sulfonyl)-3,4-dihydro-2H-benzo[b][1,4]oxazin-2-yl)propanoic acid], the EC50 in assay [1] and in assay [2] was less than 500 nM throughout.
`COC(=O)CC[C@H]1CN(S(=O)(=O)c2cccc(OC(F)F)c2)c2cc(/C=C(\C)c3c(F)cccc3Cl)cc(F)c2O1` [Example 51, Methyl (S,E)-3-(6-(2-(2-chloro-6-fluorophenyl)prop-1-en-1-yl)-4-((3-(difluoromethoxy)phenyl)sulfonyl)-8-fluoro-3,4-dihydro-2H-benzo[b][1,4]oxazin-2-yl)propanoate]: the EC50 in assay [1] and in assay [2] was less than 500 nM throughout.
Turning to `C/C(=C\c1cc(F)c2c(c1)N(S(=O)(=O)c1cccc(OC(F)F)c1)C[C@H](CCC(=O)O)O2)c1c(F)cccc1Cl` [Example 52, (S,E)-3-(6-(2-(2-Chloro-6-fluorophenyl)prop-1-en-1-yl)-4-((3-(difluoromethoxy)phenyl)sulfonyl)-8-fluoro-3,4-dihydro-2H-benzo[b][1,4]oxazin-2-yl)propanoic acid], the EC50 was less than 500 nM in assay [1] and 500 to 5000 nM in assay [2].
Take `COC(=O)CC[C@H]1CN(S(=O)(=O)c2cccc(OC(F)F)c2)c2cc(/C=C(\C)c3c(F)cccc3Cl)c(C)cc2O1` [Example 53, (S,E)-Methyl 3-(6-(2-(2-chloro-6-fluorophenyl)prop-1-en-1-yl)-4-((3-(difluoromethoxy)phenyl)sulfonyl)-7-methyl-3,4-dihydro-2H-benzo[b][1,4]oxazin-2-yl)propanoate]: the EC50 was less than 500 nM in assay [1] and 500 to 5000 nM in assay [2].
In the same order, the values of `C/C(=C\c1cc2c(cc1C)O[C@@H](CCC(=O)O)CN2S(=O)(=O)c1cccc(OC(F)F)c1)c1c(F)cccc1Cl` [Example 54, (S,E)-3-(6-(2-(2-Chloro-6-fluorophenyl)prop-1-en-1-yl)-4-((3-(difluoromethoxy)phenyl)sulfonyl)-7-methyl-3,4-dihydro-2H-benzo[b][1,4]oxazin-2-yl)propanoic acid] are less than 500 nM and 500 to 5000 nM.
With `COC(=O)CC[C@H]1CN(S(=O)(=O)c2cccc(C(F)(F)F)c2)c2cc(/C=C(\C)c3c(F)cccc3Cl)c(C)cc2O1` [Example 55, Methyl (S,E)-3-(6-(2-(2-chloro-6-fluorophenyl)prop-1-en-1-yl)-7-methyl-4-((3-(trifluoromethyl)phenyl)sulfonyl)-3,4-dihydro-2H-benzo[b][1,4]oxazin-2-yl)propanoate], the EC50 in assay [1] and in assay [2] was less than 500 nM each time.
In the case of `C/C(=C\c1cc2c(cc1C)O[C@@H](CCC(=O)O)CN2S(=O)(=O)c1cccc(C(F)(F)F)c1)c1c(F)cccc1Cl` [Example 56, (S,E)-3-(6-(2-(2-Chloro-6-fluorophenyl)prop-1-en-1-yl)-7-methyl-4-((3-(trifluoromethyl)phenyl)sulfonyl)-3,4-dihydro-2H-benzo[b][1,4]oxazin-2-yl)propanoic acid], the results for the EC50 in assay [1] and in assay [2] were less than 500 nM and more than 10000 nM, respectively.
